Measured values: EP0580185A1, “Medicaments” (THE WELLCOME FOUNDATION LIMITED, priority 1988, dated 1990)
Like-named read-outs stand apart in the source and are kept apart here.

How the values were obtained:
Pneumocystis carinii = test: Prophylaxis of Pneumocystis carinii pneumonitis in dexamethasone-treated rats, lung histopathology score; assay type: in vivo; settings: for No.with P. carinii Pneumonitis Total: per rats evaluated
Experimental: A: 2-[trans-4-(4-chlorophenyl)cyclohexyl]-3-hydroxy-1,4-naphthoquinone B: 2-[cis-4-(4-chlorophenyl)cyclohexyl]-3-hydroxy-1,4-naphthoquinone C: 2-[4-(4-chlorophenyl)cyclohexyl]-3-chloro-1,4-naphthoquinone D: 2-(4-t-butylcyclohexyl)-3-hydroxy-1,4-naphthoquinone E: 2-(4-t-butylcyclohexylmethyl)-3-hydroxy-1,4-naphthoquinone a) Prophylaxis Groups of 10 rats were treated with dexamethasone to allow latent Pneumocystis carinii infection to develop. Tetracycline was also administered to protect against bacterial infections. Test compound A was administered, by gavage, from day 4 of the dexamethasone treatment, at a dose of 100 mg/kg/day. Two control groups of rats were treated with dexamethasone and tetracycline only. A further group of rats was given cotrimoxazole (trimethoprim + sulphamethoxazole, 50 + 250 mg/kg/day, orally) in place of the test compound. At the end of the test period the animals were sacrificed and autopsies carried out. The lungs were removed and the right lung bisected. An imprint was made onto microscope slides and stained with toluidine blue. One half of the lung was placed in formalin, processed in paraffin blocks, sectioned and stained by the Gomori methanamine silver nitrate method. After autopsy the extent of P.carinii pneumonitis was scored under coded study as none if no organism seen; 1+ if P.carinii cysts seen sparsely distributed with less than one per 25 high power field (h.p.f.); 2+ if focal areas of P.carinii pneumonitis surrounded by 10 to 25 h.p.f of normal lung and 3+ if lung diffusely and extensively involved with organisms in almost all h.p.f.s.
b) Prophylaxis A further series of tests was carried out using the same general method as described above. Test compound A was administered at various dose levels, by gavage and in the diet.

Plasmodium yoelii = test: Activity against Plasmodium yoelii in vivo, tail-blood smears at 96 hours; set-up: species or system mice; settings: for ED50: Plasmodium yoelii, in Mus musculus, 96 h
Experimental: The naphthoquinone was suspended in 0.25% (w/v) celacol in water by milling for 16-24 hours at 26°C. The suspensions were subsequently serially diluted with 0.25% (w/v) celacol in water. At time 0, 0.1 ml of a suspension of 5x10⁶ P.yoelii-parasitised red blood cells/ml of phosphate saline were injected intravenously into 15-20 g mice through a tail vein. Groups of 5 mice per treatment were dosed orally at times 6, 22, 30, 46, 54, 70 and 78 hours with 0.2 ml of the drug suspension. The compound of Example 4 was also administered intravenously. Tail-blood smears were taken at 96 hours, stained with Giemsa and the percentage of red blood cells infected determined and compared to untreated, infected controls. Percent inhibition was correllated with dose to provide ED values.

Plasmodium Falciparum = test: Activity against Plasmodium falciparum in vitro, G-3H-hypoxanthine incorporation; assay type: cell-based; settings: cultures incubated for 48 hours, RPMI 1640 medium + 10% human plasma, read-out: In vitro IC₅₀
Experimental: The test method was modification of that described by Desjardins et al., Antimicrob. Agents and Chemotherapy 1979, 16, 710-718. Compounds were dissolved in ethanol at a concentration of 4.8x10⁻³M and dilutions down to 1x10⁻⁴M were made. The drug solutions were serially diluted using RPMI 1640 medium + 10% human plasma in microtitration plates. Parasitised and fresh red blood cells were added, together with G-³H-hypoxanthine, in RPMI 1640 medium + 10% human plasma and the cultures incubated for 48 hours. Cultures were then harvested, the particulate contents collected on a glass fibre filter paper and washed copiously with water. The filter papers were dried and the radioactivity measured using a scintillation counter. Infected untreated and uninfected untreated cultures were included as controls.

[1] = Water-solubility compared with the parent compound; assay type: physicochemical; settings: as compared with the parent compound of formula (V)
[2] = tested on: Pneumocystis carinii pneumonia; settings: cited from earlier work
[3] = 100 mg per kg/day, gavage, group of 10 rats
[4] = 100 mg per kg/day, gavage, group of 15 rats
[5] = 100 mg/kg/day by gavage from day 4 of dexamethasone treatment
[6] = po, dosed orally at 6, 22, 30, 46, 54, 70 and 78 hours, read-out: In vivo ED₅₀ oral

Compound: O=C1C(O)=C([C@H]2CC[C@H](c3ccc(Cl)cc3)CC2)C(=O)c2ccccc21 [Example 1C, 2-[trans-4-(4-Chlorophenyl)cyclohexyl]-3-hydroxy-1,4-naphthoquinone]
- No.with P. carinii Pneumonitis 1+ (Pneumocystis carinii; 10 mg per kg/day, gavage): 1
- No.with P. carinii Pneumonitis 2+ (Pneumocystis carinii; 10 mg per kg/day, gavage): 0
- No.with P. carinii Pneumonitis 3+ (Pneumocystis carinii; 10 mg per kg/day, gavage): 8
- No.with P. carinii Pneumonitis None (Pneumocystis carinii; 10 mg per kg/day, gavage): 1
- No.with P. carinii Pneumonitis Total (Pneumocystis carinii; 10 mg per kg/day, gavage): 9/10
- No.with P. carinii Pneumonitis 1+ (Pneumocystis carinii; 25 mg per kg/day, gavage): 2
- No.with P. carinii Pneumonitis 2+ (Pneumocystis carinii; 25 mg per kg/day, gavage): 1
- No.with P. carinii Pneumonitis 3+ (Pneumocystis carinii; 25 mg per kg/day, gavage): 4
- No.with P. carinii Pneumonitis None (Pneumocystis carinii; 25 mg per kg/day, gavage): 1
- No.with P. carinii Pneumonitis Total (Pneumocystis carinii; 25 mg per kg/day, gavage): 7/8
- No.with P. carinii Pneumonitis 1+ (Pneumocystis carinii; 50 mg per kg/day, gavage): 0
- No.with P. carinii Pneumonitis 2+ (Pneumocystis carinii; 50 mg per kg/day, gavage): 1
- No.with P. carinii Pneumonitis 3+ (Pneumocystis carinii; 50 mg per kg/day, gavage): 1
- No.with P. carinii Pneumonitis None (Pneumocystis carinii; 50 mg per kg/day, gavage): 7
- No.with P. carinii Pneumonitis Total (Pneumocystis carinii; 50 mg per kg/day, gavage): 2/9
- No.with P. carinii Pneumonitis 1+ (Pneumocystis carinii; [3]): 1
- No.with P. carinii Pneumonitis 2+ (Pneumocystis carinii; [3]): 0
- No.with P. carinii Pneumonitis 3+ (Pneumocystis carinii; [3]): 0
- No.with P. carinii Pneumonitis None (Pneumocystis carinii; [3]): 8
- No.with P. carinii Pneumonitis Total (Pneumocystis carinii; [3]): 1/9
- No.with P. carinii Pneumonitis 1+ (Pneumocystis carinii; [4]): 0
- No.with P. carinii Pneumonitis 2+ (Pneumocystis carinii; [4]): 0
- No.with P. carinii Pneumonitis 3+ (Pneumocystis carinii; [4]): 0
- No.with P. carinii Pneumonitis None (Pneumocystis carinii; [4]): 9
- No.with P. carinii Pneumonitis Total (Pneumocystis carinii; [4]): 0/9
- No.with P. carinii Pneumonitis 1+ (Pneumocystis carinii; 100 mg per kg/day, rations): 0
- No.with P. carinii Pneumonitis 2+ (Pneumocystis carinii; 100 mg per kg/day, rations): 0
- No.with P. carinii Pneumonitis 3+ (Pneumocystis carinii; 100 mg per kg/day, rations): 0
- No.with P. carinii Pneumonitis None (Pneumocystis carinii; 100 mg per kg/day, rations): 10
- No.with P. carinii Pneumonitis Total (Pneumocystis carinii; 100 mg per kg/day, rations): 0/10
- No of rats with P.carinii Pneumonitis 1+ (Pneumocystis carinii; [5]): 0
- No of rats with P.carinii Pneumonitis 2+ (Pneumocystis carinii; [5]): 0
- No of rats with P.carinii Pneumonitis 3+ (Pneumocystis carinii; [5]): 0
- No of rats with P.carinii Pneumonitis None (Pneumocystis carinii; [5]): 8
- No of rats with PCP/No of rats tested (Pneumocystis carinii; [5]): 0/8
- No.with P. carinii Pneumonitis 1+ (Pneumocystis carinii; 200 mg per kg/day, rations): 0
- No.with P. carinii Pneumonitis 2+ (Pneumocystis carinii; 200 mg per kg/day, rations): 0
- No.with P. carinii Pneumonitis 3+ (Pneumocystis carinii; 200 mg per kg/day, rations): 0
- No.with P. carinii Pneumonitis None (Pneumocystis carinii; 200 mg per kg/day, rations, Gomori-Grocott stain): 9
- No.with P. carinii Pneumonitis Total (Pneumocystis carinii; 200 mg per kg/day, rations): 0/9
- ED50 (Plasmodium yoelii; [6]): 0.03 mg/kg
- IC50 (Plasmodium Falciparum): 2 nM

Compound: COC1=C([C@H]2CC[C@H](c3ccc(Cl)cc3)CC2)C(=O)c2ccccc2C1=O [Example 2, 2-Methoxy-3-[trans-4-(4-chlorophenyl)cyclohexyl]-1,4-naphthoquinone]
- ED50 (Plasmodium yoelii; [6]): 5.8 mg/kg
- IC50 (Plasmodium Falciparum): 360 nM

Compound: NC1=C([C@H]2CC[C@H](c3ccc(Cl)cc3)CC2)C(=O)c2ccccc2C1=O [Example 3, 2-Amino-3-[trans-4-(4-chlorophenyl)cyclohexyl]-1,4-naphthoquinone]
- ED50 (Plasmodium yoelii; [6]): 1.26 mg/kg
- IC50 (Plasmodium Falciparum): 1140 nM

Compound: CN(C)CCCOC1=C([C@H]2CC[C@H](c3ccc(Cl)cc3)CC2)C(=O)c2ccccc2C1=O.Cl [Example 4, 2-[trans-4-(4-Chlorophenyl)cyclohexyl]-3-(3-dimethylaminopropoxy)-1,4-naphthoquinone hydrochloride]
- ED50 (Plasmodium yoelii; iv, administered intravenously, read-out: In vivo ED₅₀ i.v.): 2.08 mg/kg
- ED50 (Plasmodium yoelii; [6]): 0.61 mg/kg
- In vivo ED₅₀ oral (Plasmodium yoelii; dosed orally at 6, 22, 30, 46, 54, 70 and 78 hours, hydrochloride, 5760 min): 0.68 mg/kg
- IC50 (Plasmodium Falciparum): 59 nM

Compound: CC(=O)OC1=C([C@H]2CC[C@H](c3ccc(Cl)cc3)CC2)C(=O)c2ccccc2C1=O [Example 5, 2-Acetoxy-3-[trans-4-(4-chlorophenyl)cyclohexyl]-1,4-naphthoquinone]
- ED50 (Plasmodium yoelii; [6]): 0.12 mg/kg
- water-solubility [1]: improved
- IC50 (Plasmodium Falciparum): 68 nM

Compound: CCOC(=O)OC1=C([C@H]2CC[C@H](c3ccc(Cl)cc3)CC2)C(=O)c2ccccc2C1=O [Example 6, 2-Ethoxycarbonyloxy-3-[trans-4-(4-chlorophenyl)cyclohexyl]-1,4 naphthoquinone]
- ED50 (Plasmodium yoelii; [6]): 0.09 mg/kg
- IC50 (Plasmodium Falciparum): 80 nM

Compound: CN(C)c1ccc(C(=O)OC2=C([C@H]3CC[C@H](c4ccc(Cl)cc4)CC3)C(=O)c3ccccc3C2=O)cc1 [Example 7, 2-[trans-4-(4-Chlorophenyl)cyclohexyl]-3-(4-dimethylaminobenzoyloxy)-1,4-naphthoquinone]
- ED50 (Plasmodium yoelii; [6]): 0.12 mg/kg
- IC50 (Plasmodium Falciparum): 220 nM

Compound: N=C(N)c1ccc(OCCCCCOc2ccc(C(=N)N)cc2)cc1 [pentamidine]
- incidence of adverse reactions ([2]; AIDS patients): around 50%
- effective in AIDS patients ([2]; treatment of Pneumocystis carinii pneumonia): 50-70%
